Laboratory results taken from ChEMBL document CHEMBL5316329, “Structure-Based Optimization of 2,4,5-Trisubstituted Pyrimidines as Potent HIV-1 Non-Nucleoside Reverse Transcriptase Inhibitors: Exploiting the Tolerant Regions of the Non-Nucleoside Reverse Transcriptase Inhibitors' Binding Pocket” (J Med Chem, 2023).

What was measured:
[1] = Cytotoxicity against human MT4 cells assessed as reduction in cell viability treated for 5 days by MTT assay; assay type: toxicity, cell-based; details: time 5 day
[2] = Selectivity index, ratio of CC50 for human MT4 cells to EC50 for NNRTI-resistant HIV-1 RES056 infected in human MT4 cells; assay type: toxicity, cell-based; details: read-out: Selectivity Index
[3] = target: Human immunodeficiency virus type 1 reverse transcriptase (Human immunodeficiency virus 1, UniProt Q72547); assay: Inhibition of wild-type HIV-1 reverse transcriptase assessed as inhibition of biotin-dUTP incorporation
[4] = system: Human immunodeficiency virus 1; assay: Antiviral activity against NNRTI-resistant HIV-1 RES056 infected in human MT4 cells assessed as virus-induced cytopathicity treated for 5 days by MTT assay; assay type: functional, organism-based; details: Human immunodeficiency virus 1, RES056, MT4, 120 h
[5] = Selectivity index, ratio of CC50 for human MT4 cells to EC50 for wild-type HIV-1 IIIB infected in human MT4 cells; assay type: toxicity, cell-based; details: read-out: Selectivity Index
[6] = system: Human immunodeficiency virus 1; assay: Antiviral activity against wild-type HIV-1 IIIB infected in human MT4 cells assessed as virus-induced cytopathicity treated for 5 days by MTT assay; assay type: functional, organism-based; details: Human immunodeficiency virus 1, IIIB, MT4, 120 h

SMILES | CC50 at 120 h [1] [nM] | selectivity ratio [2] | IC50 [3] [nM] | EC50 [4] [nM] | selectivity ratio [5] | EC50 [6] [nM]
Cc1cc(/C=C/C#N)cc(C)c1Oc1nc(NC2CCN(Cc3ccc(C(N)=O)cc3)CC2)ncc1-c1ccccc1F | 10500 | 55 | 154 | 192 | 1420 | 7.4
Cc1cc(/C=C/C#N)cc(C)c1Oc1nc(NC2CCN(Cc3ccc(S(C)(=O)=O)cc3)CC2)ncc1-c1cccc(N)c1 | 4120 | 78 | 136 | 52.8 | 682 | 6.05
Cc1cc(/C=C/C#N)cc(C)c1Oc1nc(NC2CCN(Cc3ccc(S(C)(=O)=O)cc3)CC2)ncc1-c1ccc2c(c1)OCO2 | 4290 | 73 | 161 | 59 | 776 | 5.53
Cc1cc(/C=C/C#N)cc(C)c1Oc1nc(NC2CCN(Cc3ccc(C(N)=O)cc3)CC2)ncc1-c1ccccc1O | 11200 | 91 | 178 | 123 | 1870 | 5.99
Cc1cc(/C=C/C#N)cc(C)c1Oc1nc(NC2CCN(Cc3ccc(C(N)=O)cc3)CC2)ncc1-c1cccc(F)c1 | 11300 | 100 | 163 | 113 | 1850 | 6.11
Cc1cc(/C=C/C#N)cc(C)c1Oc1nc(NC2CCN(Cc3ccc(C(N)=O)cc3)CC2)ncc1-c1ccc(F)cc1 | 8230 | 154 | 130 | 53.5 | 1600 | 5.15
Cc1cc(/C=C/C#N)cc(C)c1Oc1nc(NC2CCN(Cc3ccc(C(N)=O)cc3)CC2)ncc1-c1ccc(O)cc1 | 21300 | 142 | 171 | 150 | 3760 | 5.66
Cc1cc(/C=C/C#N)cc(C)c1Oc1nc(NC2CCN(Cc3ccc(S(N)(=O)=O)cc3)CC2)ncc1-c1ccccc1O | 12500 | 72 | 205 | 172 | 1370 | 9.15
Cc1cc(/C=C/C#N)cc(C)c1Oc1nc(NC2CCN(Cc3ccc(S(C)(=O)=O)cc3)CC2)ncc1-c1ccccc1F | 11600 | 63 | 161 | 183 | 1710 | 6.81
Cc1cc(/C=C/C#N)cc(C)c1Oc1nc(NC2CCN(Cc3ccc(C(N)=O)cc3)CC2)ncc1-c1ccccc1N | 11700 | 239 | 122 | 49.3 | 2680 | 4.4
Cc1cc(/C=C/C#N)cc(C)c1Oc1nc(NC2CCN(Cc3ccc(S(N)(=O)=O)cc3)CC2)ncc1-c1ccccc1F | 10900 | 107 | 130 | 101 | 2760 | 3.96
Cc1cc(/C=C/C#N)cc(C)c1Oc1nc(NC2CCN(Cc3ccc(S(N)(=O)=O)cc3)CC2)ncc1-c1ccc(F)cc1 | 9630 | 142 | 137 | 67.8 | 1930 | 4.98
CC(=O)c1ccc(-c2cnc(NC3CCN(Cc4ccc(C(N)=O)cc4)CC3)nc2Oc2c(C)cc(/C=C/C#N)cc2C)cc1 | 11100 | 201 | 175 | 55.5 | 2160 | 5.16
Cc1cc(/C=C/C#N)cc(C)c1Oc1nc(NC2CCN(Cc3ccc(S(N)(=O)=O)cc3)CC2)ncc1-c1ccccc1N | 5490 | 60 | 159 | 91 | 953 | 5.76
Cc1cc(/C=C/C#N)cc(C)c1Cc1nc(NC2CCN(Cc3ccc(S(N)(=O)=O)cc3)CC2)ncc1-c1cnc(N)nc1 | 2740 | 85 | 85 | 32.3 | 617 | 4.44
Cc1cc(/C=C/C#N)cc(C)c1Oc1nc(NC2CCN(Cc3ccc(S(C)(=O)=O)cc3)CC2)ncc1-c1ccccc1O | 6730 | 18 | 328 | 376 | 745 | 9.04
Cc1cc(/C=C/C#N)cc(C)c1Oc1nc(NC2CCN(Cc3ccc(S(C)(=O)=O)cc3)CC2)ncc1-c1cccc(F)c1 | 6650 | 54 | 228 | 123 | 916 | 7.26
Cc1cc(/C=C/C#N)cc(C)c1Cc1nc(NC2CCN(Cc3ccc(C(N)=O)cc3)CC2)ncc1-c1cnc(N)nc1 | 3070 | 45 | 157 | 68.6 | 451 | 6.82
CC(=O)c1ccc(-c2cnc(NC3CCN(Cc4ccc(S(C)(=O)=O)cc4)CC3)nc2Oc2c(C)cc(/C=C/C#N)cc2C)cc1 | 8460 | 91 | 199 | 93.4 | 1540 | 5.48
Cc1cc(/C=C/C#N)cc(C)c1Oc1nc(NC2CCN(Cc3ccc(S(C)(=O)=O)cc3)CC2)ncc1-c1ccccc1N | 5110 | 47 | 178 | 109 | 868 | 5.89
Cc1cc(/C=C/C#N)cc(C)c1Oc1nc(NC2CCN(Cc3ccc(S(C)(=O)=O)cc3)CC2)ncc1-c1ccc(F)cc1 | 4340 | 43 | 145 | 101 | 853 | 5.09
Cc1cc(/C=C/C#N)cc(C)c1Oc1nc(NC2CCN(Cc3ccc(S(C)(=O)=O)cc3)CC2)ncc1-c1cccc(O)c1 | 4350 | 64 | 164 | 68 | 756 | 5.76
Cc1cc(/C=C/C#N)cc(C)c1Oc1nc(NC2CCN(Cc3ccc(S(N)(=O)=O)cc3)CC2)ncc1-c1cccc(F)c1 | 14200 | 108 | 194 | 132 | 1490 | 9.55
Cc1cc(/C=C/C#N)cc(C)c1Cc1nc(NC2CCN(Cc3ccc(S(C)(=O)=O)cc3)CC2)ncc1-c1cnc(N)nc1 | 1730 | 58 | 108 | 29.8 | 416 | 4.16
Cc1cc(/C=C/C#N)cc(C)c1Oc1nc(NC2CCN(Cc3ccc(S(C)(=O)=O)cc3)CC2)ncc1-c1ccc(O)cc1 | 5410 | 106 | 97 | 50.9 | 956 | 5.67
